Laboratory results published in patent US4001409A, “Injectable formulations of 7-[D-α-amino-α-(p-hydroxyphenyl)acetamido]-3-(1,2,3-triazol- 5-ylthiomethyl)-3-cephem-4-carboxylic acid” (priority 1975, dated 1977).
In brackets after ≈: the same amount, converted by molar mass. Several values for one entry are separate records, joined by “and”; a condition that tells them apart may be missing. Equal values may be shown once. Where a name gives a salt, the structure may show the parent alone. Read-outs that look alike come from different tables or passages of the source.

Experiments:
[1] = system: Str. pyogenes A9604; experiment: Minimum Inhibitory Concentration, tube dilution; assay type: cell-based; conditions: Streptococcus pyogenes
Description: *50% Nutrient Broth - 45% Antibiotic Assay Broth

[2] = system: Ent. cloacae A9659; experiment: Minimum Inhibitory Concentration, tube dilution; conditions: Enterobacter cloacae
[3] = system: S. aureus Smith A9537; experiment: Minimum Inhibitory Concentration, tube dilution; assay type: cell-based; conditions: Staphylococcus aureus, at 10^-^4 dilution, overnight, 37° C.
[4] = system: S. aureus BX1633-2 A9606; experiment: Minimum Inhibitory Concentration, tube dilution; assay type: cell-based; conditions: Staphylococcus aureus
[5] = system: D. pneumoniae A9585; experiment: Minimum Inhibitory Concentration, tube dilution; conditions: Streptococcus pneumoniae
[6] = system: S. aureus meth.-resist. A15097; experiment: Minimum Inhibitory Concentration, tube dilution; assay type: cell-based; conditions: Staphylococcus aureus
[7] = system: Ent. cloacae A9657; experiment: Minimum Inhibitory Concentration, tube dilution; conditions: Enterobacter cloacae
[8] = system: Ent. cloacae A9656; experiment: Minimum Inhibitory Concentration, tube dilution; conditions: Enterobacter cloacae
[9] = system: Sal. enteritidis A9531; experiment: Minimum Inhibitory Concentration, tube dilution; assay type: cell-based; conditions: Salmonella enterica
[10] = system: Ser. marcescens A20019; experiment: Minimum Inhibitory Concentration, tube dilution; conditions: Serratia marcescens
[11] = system: K. pneumoniae A9977; experiment: Minimum Inhibitory Concentration, tube dilution; conditions: Klebsiella pneumoniae
[12] = system: K. pneumoniae A15130; experiment: Minimum Inhibitory Concentration, tube dilution; conditions: Klebsiella pneumoniae
[13] = system: E. coli A9675; experiment: Minimum Inhibitory Concentration, tube dilution; assay type: cell-based; conditions: Escherichia coli
[14] = system: E. coli Juhl A15119; experiment: Minimum Inhibitory Concentration, tube dilution; conditions: Escherichia coli, JUHLA15119
[15] = system: Pr. mirabilis A9900; experiment: Minimum Inhibitory Concentration, tube dilution; conditions: Proteus mirabilis
[16] = system: vein and muscle; conditions: in vivo
[17] = Bio-assay
[18] = Heat stability of solids; assay type: physicochemical; conditions: for Stability (loss): 1 month at 56° C., 43800 min; for Heat stability (loss): Procedure D
[19] = pH of solution; assay type: physicochemical
[20] = Solubility in water / concentration of true solutions
[21] = Stability of aqueous solutions; assay type: physicochemical; conditions: alkaline pH, i.e. pH~7.0 or higher
Description: A. Stability of Aqueous Solutions of Amorphous
Monohydrate and Sodium Levulinate Mixture at […]

[22] = system: Gram-positive and Gram-negative organisms; conditions: oral and parenteral; cited from earlier work
[23] = known forms; cannot be administered intravenously; cited from earlier work
[24] = physchem; conditions: water
[25] = Blood levels in mice after oral administration; conditions: mouse, 100 mg/kg
[26] = system: Pr. morganii A15153; experiment: Minimum Inhibitory Concentration, tube dilution; conditions: Morganella morganii
[27] = system: Ps. aeruginosa A9843A; experiment: microbe, parasite or virus in culture; conditions: Pseudomonas aeruginosa
[28] = Blood levels in mice after intramuscular administration; conditions: mouse, im, 10 mg/kg
[29] = +5% serum, 50% Nutrient Broth - 45% Antibiotic Assay Broth, overnight, 37° C., read-out: M.I.C.
[30] = BX16332A9606, at 10^-^2 dil'n, overnight, 37° C.
[31] = at 10^-^4 dilution, overnight, 37° C., read-out: M.I.C.

With `CC1=C(C(=O)O)N2C(=O)[C@@H](NC(=O)[C@H](N)c3ccccc3)[C@H]2SC1` [Cephalexin] as the molecule, how does the MIC [1] read?
Its MIC is 0.5 µg/mL (≈ 1.44 µM).

What about the MIC [2] of the same molecule?
The MIC was greater than 125 µg/mL.

And the MIC ([3]; SMITHA9537, +50% serum, read-out: M.I.C.)?
The MIC was 2 µg/mL (≈ 5.76 µM).

What about the MIC ([3]; SMITHA9537, read-out: M.I.C.) of the same molecule?
Its MIC is 1 µg/mL (≈ 2.88 µM).

And the MIC ([4]; BX16332A9606, at 10^-^3 dil'n, overnight, 37° C., read-out: M.I.C.)?
Its MIC is 2 µg/mL (≈ 5.76 µM).

And the MIC [5]?
Its MIC is 1 µg/mL (≈ 2.88 µM).

What about the MIC ([6]; at 10^-^3 dil'n, 37° C) of the same molecule?
The MIC was 16 µg/mL (≈ 46.1 µM).

And the MIC ([6]; at 10^-^3 dil'n, 28° C, read-out: M.I.C.)?
Its MIC is 32 µg/mL (≈ 92.1 µM).

And the MIC [7]?
The MIC was 4 µg/mL (≈ 11.5 µM).

What about the MIC [8] of the same molecule?
Its MIC is greater than 125 µg/mL.

What about the MIC [9] of the same molecule?
Its MIC is 4 µg/mL (≈ 11.5 µM).

What about the MIC [10] of the same molecule?
The MIC was greater than 125 µg/mL.

And the MIC [11]?
Its MIC is 4 µg/mL (≈ 11.5 µM).

And the MIC [12]?
The MIC was 8 µg/mL (≈ 23 µM).

And the MIC [13]?
The MIC was 16 µg/mL (≈ 46.1 µM).

And the MIC [14]?
Its MIC is 8 µg/mL (≈ 23 µM).

What about the MIC [15] of the same molecule?
The MIC was 4 µg/mL (≈ 11.5 µM).

With `N[C@@H](C(=O)NC1C(=O)N2C(C(=O)O)=C(CSc3cnn[nH]3)CSC12)c1ccc(O)cc1` (stereo partly drawn) [amorphous mono-hydrochloride, 7[D-α-amino-α-(p-hydroxyphenyl)acetamido]-3-(1,2,3-triazol-5-ylthiomethyl)-3-cephem-4-carboxylic acid amorphous mono-hydrochloride] as the molecule, how does the “venous irritation and muscle damage” value [16] read?
Its value is “significant venous irritation and muscle damage”.

What about the Bio-assay ([17]; mono-hydrochloride) of the same molecule?
The Bio-assay was 900 µg/mg and 820 to 850 µg/mg.

What about the “Stability (loss)” value ([18]; Procedure Da) of the same molecule?
Its value is “Less than 10%”.

What about the “Stability (loss)” value ([18]; Procedure Db) of the same molecule?
The value was “Less than 10%”.

What about the “Heat stability (loss)” value ([18]; 56° C., 4 weeks, 40320 min) of the same molecule?
The value was 1-6%.

And the “Heat stability (loss)” value ([18]; 100° C., 24 hours)?
Its value is 7-14%.

And the “Heat stability (loss)” value ([18]; 100° C., 48 hours)?
Its value is 10-15%.

Which results are given for `CC(=O)C(=O)[O-].[Na+]` [sodium pyruvate]?
pH [19]: 6.5-8.0; solubility [20]: > 500 mg/mL

For `N[C@@H](C(=O)NC1C(=O)N2C(C(=O)O)=C(CSc3cnn[nH]3)CSC12)c1ccc(O)cc1` (stereo partly drawn) [amorphous monohydrate, 7-[D-α-amino-α-(p-hydroxyphenyl)acetamido]-3-(1,2,3-triazol-5-ylthiomethyl)-3-cephem-4-carboxylic acid amorphous monohydrate], which Bio-assay ([17]; monohydrate) is on record?
The Bio-assay was 900-935 units/mg.

Which “splitting off of the triazole moiety at the 3-position” value [21] does the source give for `N[C@@H](C(=O)NC1C(=O)N2C(C(=O)O)=C(CSc3cnn[nH]3)CS[C@H]12)c1ccc(O)cc1` (stereo partly drawn) [compound I, 7-[D-α-amino-α-(p-hydroxyphenyl)acetamido]-3-(1,2,3-triazol-5-ylthiomethyl)-3-cephem-4-carboxylic acid] here?
The value was “found to split off rapidly at alkaline pH”.

And the “therapeutic effectiveness against infections” value [22]?
Its value is “therapeutically effective against infections caused by both Gram-positive and Gram-negative organisms”.

What about the solubility in water [23] of the same molecule?
The solubility in water was “relatively low solubility in water”.

With `CC(=O)CCC(=O)[O-].[Na+]` [sodium levulinate] as the molecule, how does the pH [19] read?
The pH was 6.5-8.0.

What about the solubility [24] of the same molecule?
Its solubility is greater than 300 mg/mL.

Which concentration at 1 h [25] does the source give for `N[C@@H](C(=O)NC1C(=O)N2C(C(=O)O)=C(CSc3cnn[nH]3)CSC12)c1ccc(O)cc1` (stereo partly drawn) [Cephalosporin 1,2-propylene glycolate, 7-[D-α-amino-α-(p-hydroxyphenyl)acetamido]-3-(1,2,3-triazol-5-ylthiomethyl)-3-cephem-4-carboxylic acid 1,2-propylene glycolate] here?
The concentration at 1 h was 44700 ng/mL.

And the concentration at 2 h [25]?
Its concentration at 2 h is 26600 ng/mL.

What about the concentration at 3.5 h [25] of the same molecule?
Its concentration at 3.5 h is 9700 ng/mL.

What about the concentration at 9.5 h [25] of the same molecule?
The concentration at 9.5 h was 45800 ng/mL.

And the MIC [26]?
The MIC was 32 µg/mL (≈ 69.2 µM).

And the MIC [1, 29]?
The MIC was 0.03 µg/mL (≈ 0.0649 µM).

What about the MIC [2] of the same molecule?
Its MIC is 32 µg/mL (≈ 69.2 µM).

And the MIC ([3]; SMITHA9537, +50% serum)?
The MIC was 2 µg/mL (≈ 4.32 µM).

And the MIC ([3]; SMITHA9537, read-out: M.I.C.)?
Its MIC is 0.25 µg/mL (≈ 0.541 µM).

And the MIC [4, 30]?
Its MIC is 2 µg/mL (≈ 4.32 µM).

And the MIC ([4]; BX16332A9606, at 10^-^3 dil'n, overnight, 37° C.)?
Its MIC is 0.5 µg/mL (≈ 1.08 µM).

And the MIC [5]?
The MIC was 0.13 µg/mL (≈ 0.281 µM).

And the MIC [7]?
Its MIC is 1 µg/mL (≈ 2.16 µM).

And the MIC [27]?
The MIC was greater than 125 µg/mL.

What about the MIC [8] of the same molecule?
The MIC was greater than 125 µg/mL.

What about the MIC [9] of the same molecule?
The MIC was 0.5 µg/mL (≈ 1.08 µM).

What about the Bio-assay [17] of the same molecule?
Its Bio-assay is 880-890 units/mg.

What about the solubility in water [23] of the same molecule?
Its solubility in water is “relatively low solubility in water”.

What about the concentration at 0.5 h [28] of the same molecule?
The concentration at 0.5 h was 17400 ng/mL.

What about the concentration at 1 h [28] of the same molecule?
The concentration at 1 h was 12300 ng/mL.

What about the concentration at 1.5 h [28] of the same molecule?
Its concentration at 1.5 h is 9000 ng/mL.

What about the MIC [10] of the same molecule?
The MIC was greater than 125 µg/mL.

What about the MIC [11] of the same molecule?
Its MIC is 1 µg/mL (≈ 2.16 µM).

What about the MIC [12] of the same molecule?
Its MIC is 2 µg/mL (≈ 4.32 µM).

And the MIC [13, 31]?
The MIC was 4 µg/mL (≈ 8.65 µM).

What about the MIC [14] of the same molecule?
Its MIC is 1 µg/mL (≈ 2.16 µM).

And the MIC [15]?
The MIC was 0.5 µg/mL (≈ 1.08 µM).

Which MIC [26] does the source give for `CC(=O)OCC1=C(C(=O)O)N2C(=O)[C@@H](NC(=O)Cc3cccs3)[C@H]2SC1` [Cephalothin] here?
Its MIC is greater than 125 µg/mL.

And the MIC [1, 29]?
Its MIC is 0.06 µg/mL (≈ 0.151 µM).

What about the MIC [2] of the same molecule?
Its MIC is greater than 125 µg/mL.

And the MIC ([3]; SMITHA9537, +50% serum)?
The MIC was 0.5 µg/mL (≈ 1.26 µM).

What about the MIC ([4]; BX16332A9606) of the same molecule?
Its MIC is 0.25 µg/mL (≈ 0.631 µM).

What about the MIC [4, 30] of the same molecule?
Its MIC is 0.25 µg/mL (≈ 0.631 µM).

And the MIC [6]?
The MIC was 4 µg/mL (≈ 10.1 µM).

And the MIC ([6]; at 10^-^3 dil'n, 37° C)?
The MIC was 1 µg/mL (≈ 2.52 µM).

What about the MIC [7] of the same molecule?
The MIC was 2 µg/mL (≈ 5.04 µM).

And the MIC [27]?
Its MIC is greater than 125 µg/mL.

What about the MIC [8] of the same molecule?
Its MIC is greater than 125 µg/mL.

And the MIC [9, 31]?
The MIC was 0.06 µg/mL (≈ 0.151 µM).

And the MIC [10]?
The MIC was greater than 125 µg/mL.

And the MIC [11]?
Its MIC is 2 µg/mL (≈ 5.04 µM).

What about the MIC [12] of the same molecule?
Its MIC is 16 µg/mL (≈ 40.4 µM).

What about the MIC [13] of the same molecule?
Its MIC is 32 µg/mL (≈ 80.7 µM).

What about the MIC [14] of the same molecule?
The MIC was 8 µg/mL (≈ 20.2 µM).

What about the MIC [15] of the same molecule?
Its MIC is 1 µg/mL (≈ 2.52 µM).
